Entries after “also recorded” stand apart in the source; their conditions may differ. Blank lines part the entries; values can stand above or below the molecule they belong to.
Experiments:
[1] = test system: Akt protein; test: Western blotting of Akt protein phosphorylation in insulin-treated HepG2 cells; assay type: cell-based, human; conditions: verapamil 0, 5, 10 or 100 nM, with or without insulin
Experimental: First, male C57BL/6 mice at 8 weeks were divided into the fasted group wherein the mice were fasted for 16 hours and the refed group wherein the mice were fasted for 16 hours and then fed for 4 hours. Each group was sub-divided into the high fat diet group (HFD) and the normal diet group (chow). The liver cells were extracted from the raised mice by the same manner and under the same conditions as described in Example 1. The extracted liver cells were lysed in a lysis buffer containing phosphatase (Sigma-Aldrich, USA) and protease inhibitor (Sigma-Aldrich, USA). Proteins extracted from 2 to 3 mg of the liver tissue were homogenized by using a tissue homogenizer (TissuLyser, Qiagen, USA) for 1.5 minutes at a frequency of 1/30 sec. The homogenized lysate was centrifuged at 12,000 rpm for 15 minutes and the supernatant was obtained. The amount of the extracted protein was quantified by using a protein assay kit (Bio-Rad Laboratories, USA), and at this time BSA was used as a standard sample. 3 mg of the protein was mixed with 6× loading buffer, followed by electrophoresis using 10% SDS-PAGE gel. The electrophoresed protein was transferred onto a polyvinylidene fluoride (PVDF) membrane by using a transfer buffer at 4° C. with 120 V for 1.5 hours. The PVDF membrane on which the protein was transferred was pretreated with a blocking buffer prepared by mixing 5% skim milk with TBS buffer (TBS-T, pH 7.6) supplemented with Tween 20 for 30 minutes, and the membrane was washed with TBS-T. The washed membrane was added with the antibody against Akt (Cell Signaling Technology, USA), Akt(T308) (Cell Signaling Technology, USA), Akt(S473) (Cell Signaling Technology, USA), FOXO3A (Cell Signaling Technology, USA), FOXO3A(S253) (Cell Signaling Technology, USA), GSK-3β (Cell Signaling Technology, USA) or GSK-3β(S9) (Cell Signaling Technology, USA) protein as a primary antibody, followed by reaction at 4° C. for 12 hours. At this time, the antibody against actin (Santa Cruz Biotechnology, USA) protein was used for the control group. Upon completion of the reaction, the secondary antibody corresponding to the primary antibody was added thereto, followed by reaction at room temperature for 30 minutes. The PVDF membrane was washed with TBS-T buffer three times. The washed PVDF membrane was added with ECL solution (Thermo Scientific, USA), followed by image observation.
To investigate the changes in insulin sensitivity when insulin was added to the fatty liver cell model constructed in vitro, the phosphorylations of those proteins that were involved in insulin signal transduction were examined. PA was added to the human HepG2 cells prepared in Example 3, followed by reaction for 24 hours. […]

[2] = test system: cells having an increased intracellular calcium concentration; test: Calcium concentration in cells having an increased intracellular calcium concentration; assay type: cell-based; conditions: cells having an increased intracellular calcium concentration treated with verapamil
[3] = Protein-lipid binding assay with PKCβ protein C2 domain, PI(4,5)P2; conditions: calcium 0, 0.05 or 0.1 mM
Experimental: (§1) Particularly, the analysis was performed by using membrane-immobilized lipid strips (PIP-strips, Echelon Biosciences Inc., USA). At this time, the membrane was loaded with LPA (lysophosphatidic acid), LPC (lysophosphatidylcholine), PI (phosphatidylinositol), PE (phosphatidylethanolamine), PC (phosphatidylcholine), S1P (sphingosine 1-phosphate), PA (phosphatidic acid) or PS (phosphatidylserine) at the concentration of 100 pmol, to which calcium was added at the concentration of 0, 0.05 or 0.1 mM. Each membrane was pre-treated with a blocking buffer [fatty acid free 3% BSA (bovine serum albumin), 0.1% (v/v) Tween 20 and TBS (Tris-buffered saline), pH 7.5] at room temperature for 30 minutes. The PH domain of Akt protein purified in Example <7-1> was suspended in a blocking buffer at the concentration of 3.5 mg/Ml. The suspended protein was reacted with the membrane-immobilized lipid strip at room temperature for 30 minutes. The protein bound with lipid was identified by using the PH domain antibody.
(§2) To investigate whether or not the binding of the PKCβ protein C2 domain purified in Example <8-1> to PI(4,5)P2 or PI(3,4,5)P3 was inhibited by calcium, protein lipid binding assay and ITC were performed. […]

[4] = Protein-lipid binding assay with PKCβ protein C2 domain, PI(3,4,5)P3; conditions: calcium 0, 0.05 or 0.1 mM
Experimental: as §1, §2

[5] = ITC of PKCβ protein C2 domain with PI(3,4,5)P3 liposome; assay type: binding
Experimental: (§3) Particularly, a protein solution was prepared by suspending a protein in 10 mM HEPES (pH 7.0). Phospholipid related ligand was titrated in the protein solution at 25° C. by using iTC200 micro calorimetry system (MicroCal Inc., USA), and the generated graph was corrected using Origin software (MicroCal Inc., USA). At this time, the phospholipid related ligand was prepared in the form of liposome by mixing POPC (1-palmitoyl-2-oleoyl-sn-glycero-3-phosphocholin) chloroform solution and POPS (1-palmitoyl-2-oleoyl-sn-glycero-3-phosphoserine), PI(3,4)P2 (1,2-dipalmotoyl-sn-glycero-3-phosphatidylinositol-3,4-[…]), PI(4,5)P2 (1,2-dipalmotoyl-sn-glycero-3-phosphatidylinositol-4,5-trisphosphate) or PI(3,4,5)P3 (1,2-dipalmotoyl-sn-glycero-3-phosphatidylinositol-3,4,5-trisphosphate) at the molar ratio of 80:20. The organic solvent was eliminated. The organic solvent was removed and a single layer lamellar was produced in HEPES (pH 7.0) using phospholipids.
In the meantime, in ITC, the phospholipid related ligand was prepared in the form of liposome by mixing POPC chloroform solution and PI(3,4,5)P3 at the molar ratio of 80:20. Then, ITC was performed by the same manner under the same conditions as described in Example <7-3> except that the PKCβ protein C2 domain or D187/193A, the C2 domain mutant, was used.

[6] = test system: CHO cells; test: Migration of mCherry-tagged PH or C2 domain to the cell membrane, fluorescence microscopy; assay type: cell-based
Excerpt: First, the PH domain of Akt1 protein or C2 domain of PKCβ protein was obtained by PCR using the primers consisting of the nucleotide sequences represented by […]. The obtained PCR product was cloned in pmCherry-C1 vector (Takara Clontech, Japan) by the conventional cloning method. CHO cells were transfected with the prepared vector by using lipofectamine according to the manufacturer's protocol. The transfected cells were selected by using blastidicin. Then, mCherry positive cells were confirmed by flow cytometry.
PMA at the concentration of 100 nM, ionomycin at the concentration of 10 μM or insulin at the concentration of 100 nM was added to the cells expressing the PH domain of Akt1 protein or the C2 domain of PKCβ protein and the location of the expressed protein was confirmed by fluorescence microscopy.

[7] = molecular target: T1, PH domain of Akt protein (Homo sapiens, UniProt P31749); test: Protein-lipid binding assay (PIP-strips) with PH domain of Akt protein; conditions: calcium 0, 0.05 or 0.1 mM
T1 construct: His6 (C); made in house; host or cells: E. coli BL21 (DE3), pET28a vector
Experimental: E. coli BL21 (DE3) cells were transfected with a vector containing the PH domain of Akt protein, and the cells were cultured in 50 Ml of LB medium supplemented with 50 μg/Ml of kanamycin. The culture was performed at 37° C. for 8 hours. Upon completion of the culture, the cells were transferred into a 25° C. agitation incubator. The cells were cultured until OD600 reached 0.6 to 1.0, and then 1 mM IPTG (isopropyl-β-D-1-thiogalactopyranoside) was added thereto. 18 hours after the addition of IPTG, centrifugation was performed at 7,000×g at 4° C. for 10 minutes to obtain cells. Sonication equilibrium buffer (150 mM NaCl, 50 mM Tris-HCl, pH 7.6) was added to the obtained cells. The cells added with the sonication equilibrium buffer were lysed by sonication. The PH domain of Akt protein was purified from the cell lysate by […] using nickel-nitrilotriacetic acid and HiLoad Superdex-200 column (GE Healthcare life science, USA). The purity of the purified protein was examined by SDS-PAGE (sodium dodecyl sulfate polyacrylamide gel electrophoresis).
Particularly, the analysis was performed by using membrane-immobilized lipid strips (PIP-strips, Echelon Biosciences Inc., USA). […]

[8] = molecular target: T2, PH domain of the purified Akt protein (Homo sapiens, UniProt P31749); test: ITC of binding of PH domain of purified Akt protein to phospholipids; conditions: increase of the calcium concentration
T2 construct: His6 (C); made in house; host or cells: E. coli BL21 (DE3), pET28a vector
Experimental: as §3

[9] = test system: Akt protein; test: Western blot of Akt activation in HepG2 cells transfected with C2-Akt fusion protein or wild type Akt and PI3K; assay type: cell-based, human; conditions: increase of calcium concentration (PMA 0, 10, 50 or 100 nM, ionomycin 20 μM, 1 hour)
Excerpt: First, the C2 domain of PKCβ protein and Akt protein (SEQ. ID. NO: 15) were obtained by PCR using the primers consisting of the nucleotide sequences represented by SEQ. ID. NO: 9˜SEQ. ID. The obtained PCR product was cloned in pEGFP-C2 vector by the conventional cloning method, resulting in the construction of a vector expressing the C2 domain/Akt protein fusion protein (SEQ. ID. NO: 17) (C2-Akt fusion protein). At this time, as the control group, a vector expressing the wild type Akt protein containing the PH domain was prepared.
HepG2 cells were transfected with the vector expressing the C2-Akt fusion protein constructed above along with the vector expressing PI3K protein by using lipofectamine according to the manufacturer's protocol. The transfected cells were treated with PMA at the concentration of 0, 10, 50 or 100 nM ionomycin at the concentration of 20 μM, followed by reaction for 1 hour. Western blot analysis was performed with the cells above. […]

T1 sequence (P31749 1-144): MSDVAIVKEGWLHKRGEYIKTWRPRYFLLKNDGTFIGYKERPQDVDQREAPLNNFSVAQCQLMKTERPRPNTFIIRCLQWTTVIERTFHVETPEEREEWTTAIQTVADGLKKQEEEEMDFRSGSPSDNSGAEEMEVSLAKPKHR
T2 sequence (P31749 1-144): as above

Molecule: COc1ccc(CCN(C)CCCC(C#N)(c2ccc(OC)c(OC)c2)C(C)C)cc1OC (stereo not drawn) [verapamil]
phosphorylation of Akt protein [1]: increased
increased calcium concentration [2]: inhibited; also recorded: reduced

binding to PI(4,5)P2 [3]: strongly bound; also recorded: promoted
binding to PI(3,4,5)P3 [4]: strongly bound; also recorded: promoted
binding to PI(3,4,5)P3 ([5]; absence of calcium): not induced
binding to PI(3,4,5)P3 ([5]; increased calcium concentration): combined
binding to PI(3,4,5)P3 ([5]; increased calcium concentration, listed as PKCβ protein C2 domain): strongly bound
Molecule: C2 domain of PKCβ protein: C2 domain of PKCβ protein (SEQ. ID. NO: 14)
migration to the cell membrane ([6]; addition of insulin 100 nM): did not migrate
migration to the cell membrane ([6]; increased intracellular calcium concentration (PMA 100 nM, ionomycin 10 μM)): migrated; also recorded: promoted

Molecule: [Ca+2] [calcium]
binding of PH domain of Akt protein to PI(3,4)P2 or PI(3,4,5)P3 [7]: inhibited
binding of PH domain of Akt protein to PI(3,4)P2, PI(4,5)P2, PI(3,4,5)P3 or PS [8]: inhibited

Molecule: wild type Akt protein: wild type Akt protein containing the PH domain, control
Akt protein activation by PI3K [9]: inhibited
